Measurements reported in US9370515B2, “Mixed lineage kinase inhibitors and method of treatments” (CALIFIA BIO, INC., priority 2013, dated 2016).

Molecular target: MLK-3 (Homo sapiens, UniProt Q16584)
Assay: Biochemical assay for the inhibition of kinase activity for MLK-3 (33P-ATP, HOTSPOT filter binding)
Settings: activated MLK-3 20 nM, ATP 50 μM, myelin basic protein 20 μM, 20 minutes room temperature
In short: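 Activated MLK-3 (20 nM) with myelin basic protein (20 μM) in 20 mM Hepes pH 7.5, MgCl2, EGTA, Brij35, BSA, Na3VO4, DTT, 1% DMSO. Started with 33P-ATP at 50 μM ATP, 20 min at room temperature; % activity by HOTSPOT filter binding.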

Sequence of MLK-3 (Q16584 whole entry): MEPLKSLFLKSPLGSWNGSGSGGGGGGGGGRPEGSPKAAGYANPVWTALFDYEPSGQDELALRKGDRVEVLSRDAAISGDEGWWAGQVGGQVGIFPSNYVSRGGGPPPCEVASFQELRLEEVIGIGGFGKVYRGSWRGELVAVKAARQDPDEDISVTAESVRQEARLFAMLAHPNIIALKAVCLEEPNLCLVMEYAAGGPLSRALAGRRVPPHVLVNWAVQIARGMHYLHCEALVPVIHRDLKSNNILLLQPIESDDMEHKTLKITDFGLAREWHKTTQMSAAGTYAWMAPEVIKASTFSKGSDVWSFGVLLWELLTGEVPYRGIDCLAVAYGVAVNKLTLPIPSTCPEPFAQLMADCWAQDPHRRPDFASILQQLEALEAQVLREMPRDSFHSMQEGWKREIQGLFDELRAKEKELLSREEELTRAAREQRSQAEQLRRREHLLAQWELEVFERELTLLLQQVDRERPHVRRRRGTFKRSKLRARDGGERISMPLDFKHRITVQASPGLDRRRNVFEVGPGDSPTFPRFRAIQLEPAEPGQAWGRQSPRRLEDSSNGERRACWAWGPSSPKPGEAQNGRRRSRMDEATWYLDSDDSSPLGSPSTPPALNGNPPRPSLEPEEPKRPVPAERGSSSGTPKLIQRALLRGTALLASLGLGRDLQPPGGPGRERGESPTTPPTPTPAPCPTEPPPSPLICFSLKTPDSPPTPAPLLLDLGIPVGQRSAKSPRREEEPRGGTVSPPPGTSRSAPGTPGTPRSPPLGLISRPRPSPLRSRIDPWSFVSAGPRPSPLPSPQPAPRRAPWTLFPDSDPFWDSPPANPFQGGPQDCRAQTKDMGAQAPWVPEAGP

Compound | IC50 [nM]
O=c1cccc(Nc2ccc3ncc(-c4cc5ccccc5s4)n3n2)[nH]1 [Compound 45, 6-(3-(benzo[b]thiophen-2-yl)imidazo[1,2-b]pyridazin-6-ylamino)pyridin-2-ol] | < 5000
CN1CCN(c2cccc(Nc3ccc4ncc(-c5cc6ccccc6s5)n4n3)c2)CC1 [Compound 13, 3-(benzo[b]thiophen-2-yl)-N-(3-(4-methylpiperazin-1-yl)phenyl)imidazo[1,2-b]pyridazin-6-amine] | < 5000
COc1cc2cc(-c3cnc4ccc(-c5cccc(CN6CCN(C)CC6)c5)nn34)sc2cc1OC [Compound 74, 3-(5,6-dimethoxybenzo[b]thiophen-2-yl)-6-(3-((4-methylpiperazin-1-yl)methyl)phenyl)imidazo[1,2-b]pyridazine] | 500 to 1000
COc1ccc(N(C)c2ccc3ncc(-c4cc5cncc(OC)c5s4)n3n2)cc1OC [Compound 212, N-(3,4-dimethoxyphenyl)-3-(7-methoxythieno[3,2-c]pyridin-2-yl)-N-methylimidazo[1,2-b]pyridazin-6-amine] | < 5000
COc1ccc(Nc2ccc3ncc(-c4cc5cc(C)ccc5s4)n3n2)cc1OC [Compound 191, N-(3,4-dimethoxyphenyl)-3-(5-methylbenzo[b]thiophen-2-yl)imidazo[1,2-b]pyridazin-6-amine] | < 5000
COc1cc(Nc2ccc3ncc(-c4cc5cccc(OC)c5s4)n3n2)ccc1OC(F)F [Compound 183, N-(4-(difluoromethoxy)-3-methoxyphenyl)-3-(7-methoxybenzo[b]thiophen-2-yl)imidazo[1,2-b]pyridazin-6-amine] | < 5000
COc1ccc(Nc2ccc3ncc(-c4cc5c(OC)c(OC)c(OC)cc5s4)n3n2)cc1OC [Compound 76, 3-(4,5,6-trimethoxybenzo[b]thiophen-2-yl)-N-(3,4-dimethoxyphenyl)imidazo[1,2-b]pyridazin-6-amine] | < 5000
CN1CCN(Cc2ccc(-c3ccc4ncc(-c5cc6ccccc6s5)n4n3)cc2)CC1 [Compound 39, 3-(benzo[b]thiophen-2-yl)-6-(4-((4-methylpiperazin-1-yl)methyl)phenyl)imidazo[1,2-b]pyridazine] | < 5000
CCCN(C)c1ccc2ncc(-c3cc4ccccc4s3)n2n1 [Compound 107, 3-(benzo[b]thiophen-2-yl)-N-methyl-N-propylimidazo[1,2-b]pyridazin-6-amine] | < 5000
O=C(O)c1cccc(Nc2ccc3ncc(-c4ccc5ccccc5c4)n3n2)c1 [Compound 63, 3-(3-(naphthalen-3-yl)imidazo[1,2-b]pyridazin-6-ylamino)benzoic acid] | 100 to 500
COc1ccc(Nc2ccc3ncc(-c4cc5cccc(OC)c5s4)n3n2)cc1OC(F)(F)F [Compound 185, N-(4-methoxy-3-(trifluoromethoxy)phenyl)-3-(7-methoxybenzo[b]thiophen-2-yl)imidazo[1,2-b]pyridazin-6-amine] | < 5000
COc1ccc(Nc2ccc3ncc(-c4ccc5ccccc5c4)n3n2)cc1OC [Compound 62, N-(3,4-dimethoxyphenyl)-3-(naphthalen-3-yl)imidazo[1,2-b]pyridazin-6-amine] | < 5000
OC[C@H]1CCCN1c1ccc2ncc(-c3cc4ccccc4s3)n2n1 [Compound 126, ((R)-1-(3-(benzo[b]thiophen-2-yl)imidazo[1,2-b]pyridazin-6-yl)pyrrolidin-2-yl)methanol] | < 5000
COc1ccc(Nc2ccc3ncc(-c4cc5cccc(C)c5s4)n3n2)cc1OC [Compound 202, N-(3,4-dimethoxyphenyl)-3-(7-methylbenzo[b]thiophen-2-yl)imidazo[1,2-b]pyridazin-6-amine] | < 5000
O=C(O)c1cc(Nc2ccc3ncc(-c4cc5ccccc5s4)n3n2)ccc1OCCCO [Compound 44, 5-(3-(benzo[b]thiophen-2-yl)imidazo[1,2-b]pyridazin-6-ylamino)-2-(3-hydroxypropoxy)benzoic acid] | 500 to 1000
COc1ccc(Nc2ccc3ncc(-c4cc5cncc(OC)c5s4)n3n2)cc1OC [Compound 210, N-(3,4-dimethoxyphenyl)-3-(7-methoxythieno[3,2-c]pyridin-2-yl)imidazo[1,2-b]pyridazin-6-amine] | < 5000
OCCCCNc1ccc2ncc(-c3cc4ccccc4s3)n2n1 [Compound 110, 4-(3-(benzo[b]thiophen-2-yl)imidazo[1,2-b]pyridazin-6-ylamino)butan-1-ol] | 100 to 500

Now from value to compound:

IC50 [nM] | Compound
< 5000 | COc1cccc2cc(-c3cnc4ccc(N[C@H]5CC[C@H](OC)CC5)nn34)[nH]c12 [Compound 199, trans-3-(7-methoxy-1H-indol-2-yl)-N-(4-methoxycyclohexyl)imidazo[1,2-b]pyridazin-6-amine]
< 5000 | Cc1nc2ccc(N[C@H]3CC[C@H](O)CC3)nn2c1-c1cc2ccccc2s1 [Compound 111, 4-(3-(benzo[b]thiophen-2-yl)-2-methylimidazo[1,2-b]pyridazin-6-ylamino)cyclohexanol]
500 to 1000 | O[C@H]1CC[C@H](Nc2ccc3ncc(-c4csc5ccccc45)n3n2)CC1 [Compound 90, trans-4-(3-(benzo[b]thiophen-3-yl)imidazo[1,2-b]pyridazin-6-ylamino)cyclohexanol]
500 to 1000 | O[C@H]1CC[C@H](Nc2ccc3ncc(-c4cc5ncccc5s4)n3n2)CC1 [Compound 209, trans-4-(3-(thieno[3,2-b]pyridin-2-yl)imidazo[1,2-b]pyridazin-6-ylamino)cyclohexanol]
< 5000 | c1cc2cc(-c3cnc4ccc(NCC5CC5)nn34)ccc2[nH]1 [Compound 150, N-(cyclopropylmethyl)-3-(1H-indol-5-yl)imidazo[1,2-b]pyridazin-6-amine]
500 to 1000 | COc1cccc2cc(-c3cnc4ccc(N[C@H]5CC[C@H](OC)CC5)nn34)sc12 [Compound 200, trans-3-(7-methoxybenzo[b]thiophen-2-yl)-N-(4-methoxycyclohexyl)imidazo[1,2-b]pyridazin-6-amine]
< 5000 | COc1cc(Nc2ccc3ncc(-c4cc5ccccc5s4)n3n2)ccn1 [Compound 34, 3-(benzo[b]thiophen-2-yl)-N-(2-methoxypyridin-4-yl)imidazo[1,2-b]pyridazin-6-amine]
< 5000 | COc1cccc(Nc2ccc3ncc(-c4ccc5[nH]ccc5c4)n3n2)c1 [Compound 54, 3-(1H-indol-5-yl)-N-(3-methoxyphenyl)imidazo[1,2-b]pyridazin-6-amine]
100 to 500 | COc1ccc(Nc2ccc3ncc(-c4cc5cc(OC)c(OC)cc5[nH]4)n3n2)cc1OC [Compound 197, 3-(5,6-dimethoxy-1H-indol-2-yl)-N-(3,4-dimethoxyphenyl)imidazo[1,2-b]pyridazin-6-amine]
100 to 500 | COc1cc2cc(-c3cnc4ccc(N[C@H]5CC[C@H](OC)CC5)nn34)sc2cc1OC [Compound 201, trans-3-(5,6-dimethoxybenzo[b]thiophen-2-yl)-N-(4-methoxycyclohexyl)imidazo[1,2-b]pyridazin-6-amine]
100 to 500 | COc1ccc2[nH]c(-c3cnc4ccc(Nc5ccc(OC)c(OC)c5)nn34)cc2c1 [Compound 3, 3-(5-methoxy-1H-indol-2-yl)-N-(3,4-dimethoxyphenyl)imidazo[1,2-b]pyridazin-6-amine]
< 5000 | COc1ccc(Nc2ccc3ncc(-c4cccc(O)c4)n3n2)cc1OC [Compound 9, 3-(6-(3,4-dimethoxyphenylamino)imidazo[1,2-b]pyridazin-3-yl)phenol]
< 5000 | COc1cc(Nc2ccc3ncc(-c4cc5ccccc5s4)n3n2)ccc1OCC1CC1 [Compound 28, 3-(benzo[b]thiophen-2-yl)-N-(4-(cyclopropylmethoxy)-3-methoxyphenyl)imidazo[1,2-b]pyridazin-6-amine]
100 to 500 | O[C@H]1CC[C@H](Nc2ccc3ncc(-c4cc5ccccc5[nH]4)n3n2)CC1 [Compound 88, trans-4-(3-(1H-indol-2-yl)imidazo[1,2-b]pyridazin-6-ylamino)cyclohexanol]
< 5000 | O[C@H]1CC[C@H](Nc2ccc3ncc(-c4ccsc4)n3n2)CC1 [Compound 180, trans-(3-(thiophen-3-yl)imidazo[1,2-b]pyridazin-6-ylamino)cyclohexanol]
500 to 1000 | CN1CCN(c2cccc(Nc3ccc4ncc(-c5ccc6[nH]ccc6c5)n4n3)c2)CC1 [Compound 56, 3-(1H-indol-5-yl)-N-(3-(4-methylpiperazin-1-yl)phenyl)imidazo[1,2-b]pyridazin-6-amine]
500 to 1000 | COc1ccc(Nc2ccc3ncc(-c4ccc5[nH]ccc5c4)n3n2)cc1OC [Compound 53, 3-(1H-indol-5-yl)-N-(3,4-dimethoxyphenyl)imidazo[1,2-b]pyridazin-6-amine]
< 100 | COc1cc2cc(-c3cnc4ccc(N(C)[C@H]5CC[C@H](O)CC5)nn34)sc2cc1OC [Compound 177, trans-4-(N-(3-(5,6-dimethoxybenzo[b]thiophen-2-yl)imidazo[1,2-b]pyridazin-6-yl)-N-methylamino)cyclohexanol]
100 to 500 | CC(C)Oc1cccc2cc(-c3cnc4ccc(N[C@H]5CC[C@H](O)CC5)nn34)sc12 [Compound 178, trans-4-(3-(7-isopropoxybenzo[b]thiophen-2-yl)imidazo[1,2-b]pyridazin-6-ylamino)cyclohexanol]
500 to 1000 | COc1ccc2cc(-c3cnc4ccc(N[C@H]5CC[C@H](O)CC5)nn34)ccc2c1 [Compound 163, trans-4-(3-(2-methoxynaphthalen-6-yl)imidazo[1,2-b]pyridazin-6-ylamino)cyclohexanol]
< 5000 | COc1ccc2[nH]c(-c3cnc4ccc(N[C@H]5CC[C@H](OC)CC5)nn34)cc2c1 [Compound 198, trans-3-(5-methoxy-1H-indol-2-yl)-N-(4-methoxycyclohexyl)imidazo[1,2-b]pyridazin-6-amine]
< 100 | COc1ccc2[nH]c(-c3cnc4ccc(N[C@H]5CC[C@H](O)CC5)nn34)cc2c1 [Compound 85, trans-4-(3-(5-methoxy-1H-indol-2-yl)imidazo[1,2-b]pyridazin-6-ylamino)cyclohexanol]
